Laboratory results as given in article PMC4105567, “Aurora Kinases as Druggable Targets in Pediatric Leukemia: Heterogeneity in Target Modulation Activities and Cytotoxicity by Diverse Novel Therapeutic Agents” (PLoS ONE, 2014).
Where two headings read alike, the source gives them in different places.

Legend:
C1 B-ALL cell line = test: Cytotoxicity assay, C1; type: cell-based, human; details: four days in culture, Alamar blue assay or automated microscopy, ± SD, three experiments
Procedure: (§1) Cell lines were cultured in Opti-MEM medium (Gibco, Life Technologies Corporation, Burlington, Ontario) supplemented with 10% heat inactivated fetal bovine serum (FBS) (Gibco), 100 units/ml penicillin and 100 units/ml streptomycin (Gibco) and 0.05 mM 2-mercaptoethanol (Sigma-Aldrich, Oakville, Ontario) in T25 flasks (Nalge Nunc, Rochester, New York) or T75 flasks (Corning Incorporated, Corning, New York). All cell cultures were maintained at 37°C in a humidified incubator with 5% CO2.
(§2) For cytotoxicity profiling of Aurora kinase inhibitors against leukemia cell lines, inhibitors or vehicle control (DMSO, Sigma-Aldrich) were diluted in 100 µl of Opti-MEM per well in 96 well plates (Grenier Bio-One, Monroe, North Carolina) in triplicate at final concentrations ranging from 1×10^−6 to 10 µM. 1×10^4 cells per well were seeded and plates were incubated for 4 days. Following incubation for 4 days, cell survival was quantified by Alamar blue assay (Invitrogen) or automated inverted microscopy using the Celigo Cell Cytometer (Cyntellect, San Diego, California). […] During this period of incubation, the absorbance at 570–620 nm was measured (Opsys MR Plate Reader, Dynex Technologies, Chantilly, Virginia) at various time points, depending on the cell line or sample. Percent survival was calculated by comparing the absorbance ratio of the test well to the control well multiplied by 100%, as indicated in the following formula: […]
(§3) For automated inverted microscopy, the number of cells in each well was determined using the direct cell counting application as described previously. Briefly, following adjustment of image acquisition settings for bright-field imaging, the wells containing cells and appropriate dilutions of inhibitors were individually scanned. Based on these images, analysis parameters, including intensity threshold and cell diameter, were modified for optimal inclusion of viable cells in treated and control wells. These parameters were applied for subsequent replicates involving the same leukemia cell line or sample. The percent survival was then calculated as a ratio of the number of cells in treated wells to the number of cells in control wells multiplied by 100%. Given that Aurora kinase inhibitors interfere with cytokinesis, cells that are committed to death may still contain enlarging but intact cytoplasmic content before the eventual loss of cytoplasmic membrane integrity. The accuracy of Alamar blue assay may be, in theory, affected by the timing of these events.

UOCB1 B-ALL cell line = test: Cytotoxicity assay, UOCB1; type: cell-based, human; details: four days in culture, Alamar blue assay or automated microscopy, ± SD, three experiments
Procedure: as §1, §2, §3

Nalm6 B-ALL cell line = test: Cytotoxicity assay, Nalm6; type: cell-based, human; details: four days in culture, Alamar blue assay or automated microscopy, ± SD, three experiments
Procedure: as §1, §2, §3

KOPN8 B-ALL cell line = test: Cytotoxicity assay, KOPN8; type: cell-based, human; details: four days in culture, Alamar blue assay or automated microscopy, ± SD, three experiments
Procedure: as §1, §2, §3

CEM T-ALL cell line = test: Cytotoxicity assay, CEM; type: cell-based, human; details: four days in culture, Alamar blue assay or automated microscopy, ± SD, three experiments
Procedure: as §1, §2, §3

Molm13 AML cell line = test: Cytotoxicity assay, Molm13; type: cell-based, human; details: four days in culture, Alamar blue assay or automated microscopy, ± SD, three experiments
Procedure: as §1, §2, §3

MV4-11 AML cell line = test: Cytotoxicity assay, MV4-11; type: cell-based, human; details: AML cell line MV4-11, four days in culture, Alamar blue assay or automated microscopy, ± SD, three experiments
Procedure: as §1, §2, §3

TIB-202 AML cell line = test: Cytotoxicity assay, TIB-202; type: cell-based, human; details: AML cell line TIB-202, four days in culture, Alamar blue assay or automated microscopy, ± SD, three experiments
Procedure: as §1, §2, §3

NB4 APML cell line = test: Cytotoxicity assay, NB4; type: cell-based, human; details: four days in culture, Alamar blue assay or automated microscopy, ± SD, three experiments
Procedure: as §1, §2, §3

HL-60 APML cell line = test: Cytotoxicity assay, HL-60; type: cell-based, human; details: APML cell line HL-60, four days in culture, Alamar blue assay or automated microscopy, ± SD, three experiments
Procedure: as §1, §2, §3

HL-60 RA APML cell line = test: Cytotoxicity assay, HL-60 RA; type: cell-based, human; details: APML cell line HL-60 RA, four days in culture, Alamar blue assay or automated microscopy, ± SD, three experiments
Procedure: as §1, §2, §3

[1] = system: Patient #1 B-ALL primary leukemia cells; test: Cytotoxicity assay, primary sample Patient #1; type: cell-based, human; details: four days in culture, Alamar blue assay or automated microscopy, one complete study
Procedure: (§4) These include B-ALL (Patient #1), relapsed AML (Patient #2), AML/CML (Patient #3), infant ALL (Patient #4), and initial ALL presenting with secondary AML (Patient #5). […] The diluted sample was then layered on a Ficoll-Paque (GE Healthcare, Piscataway, New Jersey) gradient at a 1∶2 ratio of Ficoll to diluted sample. Samples were then centrifuged 1800 rpm for 20 minutes at room temperature. The buffy coat was removed with a pipette and transferred to a new centrifuge tube and diluted with PBS. After an additional centrifugation at 1200 rpm, the white blood cell pellet was washed with PBS and centrifuged one last time. Cells were re-suspended in Opti-MEM and viable cells were counted using trypan blue (Invitrogen, Life Technologies Corporation, Burlington, Ontario) exclusion on a haemocytometer. An identical protocol was followed for the isolation of white blood cells, referred to as “normal lymphocytes” in the following paragraphs, from healthy volunteers. Samples grown in culture for up to six months were cultured in Opti-MEM medium supplemented with 10% heat inactivated FBS, penicillin/streptomycin and 2-mercaptoethanol.
as §2, §3

[2] = system: Patient #2 relapsed AML primary leukemia cells; test: Cytotoxicity assay, primary sample Patient #2; type: cell-based, human; details: four days in culture, Alamar blue assay or automated microscopy, one complete study
Procedure: as §4, §2, §3

[3] = system: Patient #4 infant leukemia primary cells; test: Cytotoxicity assay, primary sample Patient #4; type: cell-based, human; details: four days in culture, Alamar blue assay or automated microscopy, one complete study
Procedure: as §4, §2, §3

[4] = system: Patient #5 ALL/AML primary leukemia cells; test: Cytotoxicity assay, primary sample Patient #5; type: cell-based, human; details: primary sample, four days in culture, Alamar blue assay or automated microscopy, one complete study, read-out: IC50, Patient #5 ALL/AML
Procedure: as §4, §2, §3

Aurora-B = system: Aurora-B; design: method as in earlier work; details: literature values; ref [10],[22],[27],[40],[44]–[64] as listed per inhibitor in Table 1; read-out: Targets (IC50 Value): Aurora-B; cited from earlier work

Row | SMILES | IC50 (C1 B-ALL cell line; Homo sapiens, 96 h) [nM] | IC50 (UOCB1 B-ALL cell line; Homo sapiens, UoC-B1, 96 h) [nM] | IC50 (Nalm6 B-ALL cell line; Homo sapiens, NALM-6, 96 h) [nM] | IC50 (KOPN8 B-ALL cell line; Homo sapiens, KOPN-8, 96 h) [nM] | IC50 (CEM T-ALL cell line; Homo sapiens, 96 h) [nM] | IC50 (Molm13 AML cell line; Homo sapiens, MOLM-13, 96 h) [nM] | IC50 (MV4-11 AML cell line; Homo sapiens, 96 h) [nM] | IC50 (TIB-202 AML cell line; Homo sapiens, 96 h) [nM] | IC50 (NB4 APML cell line; Homo sapiens, 96 h) [nM] | IC50 (HL-60 APML cell line; Homo sapiens, 96 h) [nM] | IC50 (HL-60 RA APML cell line; Homo sapiens, 96 h) [nM] | IC50 ([1]; Homo sapiens, 96 h) [nM] | IC50 ([2]; Homo sapiens, 96 h) [nM] | IC50 ([3]; Homo sapiens, 96 h) [nM] | IC50 ([4]; Homo sapiens, 96 h) [nM] | IC50 (Aurora-B) [nM] | other results
1 | O=C(Nc1c[nH]nc1-c1nc2ccc(CN3CCOCC3)cc2[nH]1)NC1CC1 [AT9283] | 0.6 | 0.08 | 6 ± 3 | 2 ± 1 | 0.7 | 5 ± 3 | 3 ± 2 | 800 ± 200 | 60 ± 30 | 50 ± 20 | 3 ± 2 | 3 | 80 | 5000 | 0.3 | 3 | 
2 | CCN1CCN(C(=O)Cc2ccc(Nc3ncc(F)c(Nc4ccc(C(=O)Nc5ccccc5Cl)cc4)n3)cc2)CC1 [Aurora A Inhibitor I] |  |  |  |  |  |  |  |  |  |  |  |  |  |  |  | 3400 | IC50 (C1 B-ALL cell line): 900 ± 200 nM; IC50 (UOCB1 B-ALL cell line): 20 ± 9 nM; IC50 (Nalm6 B-ALL cell line): 400 ± 80 nM; IC50 (KOPN8 B-ALL cell line): 800 ± 50 nM; IC50 (CEM T-ALL cell line): 300 ± 200 nM; IC50 (Molm13 AML cell line): 2000 ± 1000 nM; IC50 (MV4-11 AML cell line): 400 ± 100 nM; IC50 (TIB-202 AML cell line): 5 ± 2 nM; IC50 (NB4 APML cell line): 700 ± 50 nM; IC50 (HL-60 APML cell line): 2000 ± 1000 nM; IC50 (HL-60 RA APML cell line): 1000 ± 600 nM; IC50 [1]: 800 nM; IC50 [2]: 1000 nM; IC50 [3]: 8000 nM; IC50 [4]: 6 nM
3 | CCS(=O)(=O)Nc1ccc2c(c1)/C(=C(/Nc1ccc(CN3CCCCC3)cc1)c1ccccc1)C(=O)N2 [Hesperadin] | 0.06 | < 0.001 | 0.004 | 0.1 | < 0.001 | 0.3 | 0.005 | 0.003 | 4 ± 1 | 6 ± 3 | 0.05 | 0.04 | 0.3 | 2000 | 0.01 | 250 | 
